Where two headings read alike, the source gives them in different places.

For one assay, the system named is Zymoseptoria tritici. The assay is described as follows: Leaf Blotch of Wheat (SEPTTR) fungicidal activity. Type of assay: in vivo. To be noted: wheat leaf blotch; for pest or weed control at 100 ppm: High Volume application; for pest or weed control at 121.5 g/ha: Low Volume application, 121.5 g/H. Summed up: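 Wheat seedlings (Yuma, first leaf emerged) were sprayed to run-off with compound in acetone/water containing Triton X-100 and inoculated with Z. tritici spores before or after treatment. Percent disease control comes from 0–100% severity on treated versus untreated plants.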

The subject of a further assay is Puccinia triticina. The assay can be described thus: Wheat Brown Rust (PUCCRT) fungicidal activity. Type of assay: in vivo. To be noted: for pest or weed control at 100 ppm: High Volume application; for pest or weed control at 121.5 g/ha: Low Volume application, 121.5 g/H. Summed up:
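Yuma wheat seedlings at first-leaf stage sprayed to run-off with acetone/water (Triton X-100) solutions, inoculated with P. triticina spores before or after treatment. Overnight dark dew at 22° C, then greenhouse at 24° C; percent disease control from severity versus untreated plants.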

The mark [1] stands for this setting: 24 h, 1 day protectant, read-out: SEPTTR disease control, 1DP (1 Day Protectant).
Setting [2] is: 72 h, 3 day curative, read-out: SEPTTR disease control, 3DC (3 Day Curative).
[3] abbreviates: 24 h, 1 day protectant, read-out: PUCCRT disease control, 1DP (1 Day Protectant).
Where [4] appears, read: 72 h, 3 day curative, read-out: PUCCRT disease control, 3DC (3 Day Curative).

As to `COc1ccnc(C(=O)N[C@H]2COCCC[C@@H](OCC(C)C)[C@H](C)OC2=O)c1O` [Compound 112], the pest or weed control at 100 ppm in the assay with Zymoseptoria tritici (setting [1]), with Zymoseptoria tritici (setting [2]), in the assay on Puccinia triticina (setting [3]) and with Puccinia triticina (setting [4]) was less than 80% each time.

On to `COc1ccnc(C(=O)N[C@H]2CCCC[C@H](CC3CCCC3)[C@@H](OC)[C@H](C)OC2=O)c1O` [Compound 125], for which the pest or weed control at 100 ppm in the assay on Zymoseptoria tritici (setting [1]) is less than 80%; with Zymoseptoria tritici (setting [2]), less than 80%; with Puccinia triticina (setting [3]), greater than 80%; with Puccinia triticina (setting [4]) it was less than 80%.

Regarding `CCCCCO[C@H]1[C@H](C)OC(=O)[C@@H](NC(=O)c2nccc(OC)c2O)CCCC[C@@H]1OC(=O)c1ccccc1` [Compound 94], the pest or weed control at 100 ppm in the assay with Zymoseptoria tritici (setting [1]) is greater than 80%; in the assay on Zymoseptoria tritici (setting [2]), less than 80%; in the assay on Puccinia triticina (setting [3]) it was greater than 80%; with Puccinia triticina (setting [4]) it was less than 80%.

With `COc1ccnc(C(=O)N[C@H]2COCC[C@H](OCc3ccccc3)[C@@H](OCc3ccccc3)[C@H](C)OC2=O)c1OCOC(C)=O` [Compound 1], the pest or weed control at 100 ppm in the assay on Zymoseptoria tritici (setting [1]), with Puccinia triticina (setting [3]) and in the assay on Puccinia triticina (setting [4]) was greater than 80% in each case. Besides, the pest or weed control at 121.5 g/ha in the assay with Zymoseptoria tritici (setting [1]) was greater than 80%; in the assay on Zymoseptoria tritici (setting [2]) it was less than 80%; with Puccinia triticina (setting [3]), greater than 80%.

`COc1ccnc(C(=O)N[C@H]2CCCC[C@H](OC)[C@@H](OC3CCCC3)[C@H](C)OC2=O)c1O` [Compound 107]: the pest or weed control at 100 ppm was greater than 80% in the assay with Zymoseptoria tritici (setting [1]), less than 80% in the assay with Zymoseptoria tritici (setting [2]), greater than 80% in the assay with Puccinia triticina (setting [3]) and greater than 80% in the assay with Puccinia triticina (setting [4]).

Consider `CC[C@H]1CCOC[C@H](NC(=O)c2nccc(OC)c2OCOC(C)=O)C(=O)O[C@@H](C)[C@@H]1Oc1ccccc1` [Compound 69], for which the pest or weed control at 121.5 g/ha with Zymoseptoria tritici (setting [1]), with Zymoseptoria tritici (setting [2]), with Puccinia triticina (setting [3]) and in the assay on Puccinia triticina (setting [4]) was greater than 80% in each case.

For the compound `CCCCO[C@H]1CCOC[C@H](NC(=O)c2nccc(OC)c2O)C(=O)O[C@@H](C)[C@@H]1OC(=O)C1CC1` [Compound 85], the pest or weed control at 100 ppm was less than 80% in the assay with Zymoseptoria tritici (setting [1]), greater than 80% with Zymoseptoria tritici (setting [2]), greater than 80% in the assay with Puccinia triticina (setting [3]) and greater than 80% in the assay on Puccinia triticina (setting [4]).

On to `CCCO[C@@H]1[C@@H](CC2CCCC2)CCCC[C@H](NC(=O)c2nccc(OC)c2O)C(=O)O[C@H]1C` [Compound 124], for which the pest or weed control at 100 ppm with Zymoseptoria tritici (setting [1]), in the assay with Zymoseptoria tritici (setting [2]), in the assay on Puccinia triticina (setting [3]) and with Puccinia triticina (setting [4]) was less than 80% throughout.

With `COc1ccnc(C(=O)N[C@H]2CCCC[C@@H]3OC(C)(C)O[C@H]3[C@H](C)OC2=O)c1OC(C)=O` [Compound 29], the pest or weed control at 121.5 g/ha in the assay with Zymoseptoria tritici (setting [1]) is less than 80%; in the assay on Zymoseptoria tritici (setting [2]), greater than 80%; in the assay with Puccinia triticina (setting [3]), greater than 80%; in the assay on Puccinia triticina (setting [4]) it was greater than 80%.

With `COc1ccnc(C(=O)N[C@H]2CCCC[C@H](Oc3ccccc3)[C@@H](OC3CCCC3)[C@H](C)OC2=O)c1O` [Compound 109], the pest or weed control at 100 ppm in the assay with Zymoseptoria tritici (setting [1]) is greater than 80%; in the assay with Zymoseptoria tritici (setting [2]), less than 80%; in the assay with Puccinia triticina (setting [3]), greater than 80%; in the assay on Puccinia triticina (setting [4]), less than 80%.

`COc1ccnc(C(=O)N[C@H]2CCCC[C@H](OCc3ccccc3)[C@@H](OCc3ccccc3)[C@H](C)OC2=O)c1OC(C)=O` [Compound 9]: the pest or weed control at 100 ppm is greater than 80% in the assay on Zymoseptoria tritici (setting [1]), less than 80% in the assay on Zymoseptoria tritici (setting [2]), greater than 80% with Puccinia triticina (setting [3]) and greater than 80% in the assay on Puccinia triticina (setting [4]). Moreover, the pest or weed control at 121.5 g/ha in the assay on Zymoseptoria tritici (setting [1]) was greater than 80%; in the assay on Zymoseptoria tritici (setting [2]), greater than 80%; in the assay with Puccinia triticina (setting [3]), greater than 80%; in the assay with Puccinia triticina (setting [4]), less than 80%.

Turning to `CC(=O)OCOc1cccnc1C(=O)N[C@H]1CCCC[C@H](CC2CCCC2)[C@@H](Oc2ccccc2)[C@H](C)OC1=O` [Compound 49], the figures for the pest or weed control at 100 ppm in the assay on Zymoseptoria tritici (setting [1]), in the assay on Zymoseptoria tritici (setting [2]) and in the assay on Puccinia triticina (setting [3]) were less than 80%, less than 80% and greater than 80%, respectively. Besides, the results for the pest or weed control at 121.5 g/ha with Zymoseptoria tritici (setting [1]), in the assay on Puccinia triticina (setting [3]) and in the assay on Puccinia triticina (setting [4]) were less than 80%, greater than 80% and less than 80%, respectively.

Consider `COc1ccnc(C(=O)N[C@H]2CCOC[C@H](OC)[C@@H](Oc3ccccc3)[C@H](C)OC2=O)c1OC(C)=O` [Compound 48], for which the pest or weed control at 121.5 g/ha with Zymoseptoria tritici (setting [1]), in the assay on Zymoseptoria tritici (setting [2]), with Puccinia triticina (setting [3]) and in the assay with Puccinia triticina (setting [4]) was greater than 80% in each case.

As for `COc1ccnc(C(=O)N[C@H]2COCC[C@H](OCC(C)C)[C@@H](OCC(C)C)[C@H](C)OC2=O)c1O` [Compound 86], the pest or weed control at 100 ppm in the assay with Zymoseptoria tritici (setting [1]) is less than 80%; in the assay on Zymoseptoria tritici (setting [2]), greater than 80%; with Puccinia triticina (setting [3]) it was greater than 80%; in the assay on Puccinia triticina (setting [4]), less than 80%.

As to `COc1ccnc(C(=O)N[C@H]2CCCC[C@H](OC)[C@@H](OCC(C)C)[C@H](C)OC2=O)c1O` [Compound 92], the pest or weed control at 100 ppm in the assay with Zymoseptoria tritici (setting [1]), in the assay with Zymoseptoria tritici (setting [2]), with Puccinia triticina (setting [3]) and in the assay on Puccinia triticina (setting [4]) was greater than 80% in each case.

For the compound `COc1ccnc(C(=O)N[C@H]2CCCC[C@H](CC3CCCC3)[C@@H](OC)[C@H](C)OC2=O)c1OC(C)=O` [Compound 59], the pest or weed control at 121.5 g/ha in the assay with Zymoseptoria tritici (setting [1]) was less than 80%; in the assay on Puccinia triticina (setting [3]), greater than 80%; in the assay on Puccinia triticina (setting [4]), greater than 80%.

For `COc1ccc(C[C@H]2CCOC[C@H](NC(=O)c3nccc(OC)c3O)C(=O)O[C@@H](C)[C@@H]2Oc2ccccc2)cc1` [Compound 129], the pest or weed control at 100 ppm in the assay on Zymoseptoria tritici (setting [1]), in the assay on Puccinia triticina (setting [3]) and in the assay on Puccinia triticina (setting [4]) was greater than 80% throughout.

As for `COc1ccnc(C(=O)N[C@H]2CCCC[C@H](Oc3ccccc3)[C@@H](Oc3ccccc3)[C@H](C)OC2=O)c1OC(C)=O` [Compound 25], the pest or weed control at 121.5 g/ha in the assay on Zymoseptoria tritici (setting [1]) is greater than 80%; in the assay on Zymoseptoria tritici (setting [2]), less than 80%; with Puccinia triticina (setting [3]), greater than 80%; with Puccinia triticina (setting [4]), less than 80%.

As to `COc1ccnc(C(=O)N[C@H]2COCC[C@H](Cc3ccc(F)cc3)[C@@H](Oc3ccccc3)[C@H](C)OC2=O)c1O` [Compound 132], the pest or weed control at 100 ppm with Zymoseptoria tritici (setting [1]), in the assay on Puccinia triticina (setting [3]) and in the assay on Puccinia triticina (setting [4]) was greater than 80% in each case.

Turning to `COc1ccnc(C(=O)N[C@H]2CCCC[C@H](OC)[C@@H](OC3CCCC3)[C@H](C)OC2=O)c1OCOC(C)=O` [Compound 34], the pest or weed control at 121.5 g/ha with Zymoseptoria tritici (setting [1]) was less than 80%; in the assay on Zymoseptoria tritici (setting [2]), greater than 80%; in the assay with Puccinia triticina (setting [3]), greater than 80%; in the assay with Puccinia triticina (setting [4]) it was greater than 80%.

Consider `COc1ccnc(C(=O)N[C@H]2CCCC[C@H](Cc3ccccc3)[C@@H](Oc3ccccc3)[C@H](C)OC2=O)c1O` [Compound 128], for which the pest or weed control at 100 ppm was greater than 80% with Zymoseptoria tritici (setting [1]), less than 80% in the assay on Zymoseptoria tritici (setting [2]), greater than 80% with Puccinia triticina (setting [3]) and greater than 80% in the assay with Puccinia triticina (setting [4]).
